This is an account of results in patent US8969352B2, “Substituted 2-azabicycles and their use as orexin receptor modulators” (Janssen Pharmaceutica NV, priority 2013, dated 2015).

pKi: −log10 of the molar value.

The target of assay [1] is human orexin 1 receptor (Homo sapiens, UniProt O43613). As to the kind of experiment: Human orexin 1 receptor radioligand binding. The settings on record: CHO cells stably expressing human orexin 1 receptor; competitive radioligand binding, apparent Ki; read-out: hOX1 Ki. How it is done:
(§1) Rat and Human Orexin 1 Receptor Radioligand Binding Studies
(§2) After centrifugation (2K×G, 5 min at 4° C.), the supernatant was aspirated and the pellets frozen and stored at −80° C. […] Each cell pellet from a 15 cm plate was resuspended in 10 mL, stored on ice, and homogenized for 45 sec prior to addition to the reactions. […] The final concentration of DMSO in the reactions is equal to or less than 0.1%. Total and nonspecific binding was determined in the absence and presence of 10 μM almorexant. The total volume of each reaction is 200 μL (20 μL of diluted compounds, 80 μL of [^3H]-(1-(5-(2-fluoro-phenyl)-2-methyl-thiazol-4-yl)-1-((S)-2-(5-phenyl-(1,3,4)oxadiazol-2-ylmethyl)-pyrrolidin-1-yl)-methanone) diluted in PBS and 100 μL of the cell suspension). […] The plates were washed 3 times by aspirating 30 ml PBS through the plates. Plates were dried in 55° C. oven for 60 min, scintillation fluid was added, and the radioactivity was counted on a Topcount (Packard).

The target in assay [2] is rat orexin 1 receptor (Rattus norvegicus, UniProt P56718). The assay is described as follows: Rat orexin 1 receptor radioligand binding. As to conditions: HEK293 cells stably expressing rat orexin 1 receptor; competitive radioligand binding, apparent Ki; read-out: rOX1 Ki. How it is done: as §1, §2
Assay [3] addresses human orexin 2 receptor (Homo sapiens (Human), UniProt O43614). As to the kind of experiment: Human orexin 2 receptor radioligand binding. As to conditions: HEK293 stably expressing human orexin 2 receptor; [3H]-EMPA competitive binding, apparent Ki; read-out: hOX2 Ki. How it is done: Human Orexin 2 Receptor Radioligand Binding Studies
as §2, with “sec just” for “sec”, “reactions. Competition binding experiments in 96 well polypropylene plates were performed using [^3H]-EMPA (Moraveck Corporation, specific activity=29.6 Ci/mmol), diluted to a 5 nM concentration in PBS (2 nM final concentration).” for “reactions.”, “[^3H]-EMPA” for “[^3H]-(1-(5-(2-fluoro-phenyl)-2-methyl-thiazol-4-yl)-1-((S)-2-(5-phenyl-(1,3,4)oxadiazol-2-ylmethyl)-pyrrolidin-1-yl)-methanone)”

Sequence of human orexin 2 receptor (O43614 whole entry): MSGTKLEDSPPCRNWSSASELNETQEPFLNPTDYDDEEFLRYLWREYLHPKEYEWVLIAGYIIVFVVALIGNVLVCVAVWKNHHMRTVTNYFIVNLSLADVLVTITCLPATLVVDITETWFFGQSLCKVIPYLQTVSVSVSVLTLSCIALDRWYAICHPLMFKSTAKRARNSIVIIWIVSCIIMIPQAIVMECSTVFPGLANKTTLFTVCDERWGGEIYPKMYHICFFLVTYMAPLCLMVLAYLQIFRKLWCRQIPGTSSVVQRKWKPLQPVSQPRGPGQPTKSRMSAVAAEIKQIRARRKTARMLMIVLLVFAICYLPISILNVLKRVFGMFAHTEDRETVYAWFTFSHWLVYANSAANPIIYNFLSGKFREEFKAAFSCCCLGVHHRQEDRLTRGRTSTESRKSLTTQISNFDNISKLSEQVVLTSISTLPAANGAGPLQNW

With `O=C(c1ccccc1-n1nccn1)N1CC2CC(Oc3cnc(C(F)(F)F)cn3)C1C2` (racemic) [Example 1, (R/S)-(2-(2H-1,2,3-triazol-2-yl)phenyl)(6-((5-(trifluoromethyl)pyrazin-2-yl)oxy)-2-azabicyclo[2.2.1]heptan-2-yl)methanone], the results for the pKi in assay [1] and in assay [2] were 6.92 and 7.13, respectively.

`Cc1ccc(-n2nccn2)c(C(=O)N2CC3CC(Oc4cnc(C(F)(F)F)cn4)C2C3)n1` (racemic) [Example 2, (R/S)-(6-methyl-3-(2H-1,2,3-triazol-2-yl)pyridin-2-yl)(6-((5-(trifluoromethyl)pyrazin-2-yl)oxy)-2-azabicyclo[2.2.1]heptan-2-yl)methanone]: the negative logarithm of the Ki (pKi) – broadly, the Ki on a negative log10 scale, so that one unit is a factor of ten – is 5.00 in assay [3], 6.47 in assay [1] and 6.70 in assay [2].

For the compound `CCOc1ncc2ccccc2c1C(=O)N1CC2CC(Oc3cnc(C(F)(F)F)cn3)C1C2` (racemic) [Example 3], the values for the pKi in assay [3], in assay [1] and in assay [2] were 5.05, 6.91 and 7.20, respectively.

Turning to `Cc1cnc(C(=O)N2CC3CC(Oc4cnc(C(F)(F)F)cn4)C2C3)c(-n2nccn2)c1` (racemic) [Example 4], the negative-log Ki (pKi) was below 5.00 in assay [3] and 6.08 in assay [2].

Turning to `O=C(c1ccccc1-n1nccn1)N1CC2CC(Oc3ccc(C(F)(F)F)cn3)C1C2` (racemic) [Example 7, (R/S)-(2-(2H-1,2,3-triazol-2-yl)phenyl)(6-((5-(trifluoromethyl)pyridin-2-yl)oxy)-2-azabicyclo[2.2.1]heptan-2-yl)methanone], the pKi in assay [1] was 7.92; in assay [2], 7.68.

Take `CCOc1ncc2ccccc2c1C(=O)N1CC2CC(Oc3ccc(C(F)(F)F)cn3)C1C2` (racemic) [Example 8, (R/S)-(3-ethoxyisoquinolin-4-yl)(6-((5-(trifluoromethyl)pyridin-2-yl)oxy)-2-azabicyclo[2.2.1]heptan-2-yl)methanone]: in assay [3], the pKi is 5.84.

With `COc1cccc(-n2nccn2)c1C(=O)N1CC2CC(Oc3ccc(C(F)(F)F)cn3)C1C2` (racemic) [Example 15], the pKi in assay [3] is 6.64.

Consider `O=C(c1cccc(F)c1-n1nccn1)N1CC2CC(Oc3ccc(C(F)(F)F)cn3)C1C2` (racemic) [Example 16, (R/S)-(3-fluoro-2-(2H-1,2,3-triazol-2-yl)phenyl)(6-((5-(trifluoromethyl)pyridin-2-yl)oxy)-2-azabicyclo[2.2.1]heptan-2-yl)methanone], for which, in assay [2], the pKi is 8.10.

For `Cc1cccc(C(=O)N2CC3CC(Oc4ccc(C(F)(F)F)cn4)C2C3)c1-n1nccn1` (racemic) [Example 17, (R/S)-(3-methyl-2-(2H-1,2,3-triazol-2-yl)phenyl)(6-((5-(trifluoromethyl)pyridin-2-yl)oxy)-2-azabicyclo[2.2.1]heptan-2-yl)methanone], in assay [3], the pKi is 6.63.

Regarding `O=C(c1c(F)cccc1-n1nccn1)N1CC2CC(Oc3ccc(C(F)(F)F)cn3)C1C2` (racemic) [Example 18, (R/S)-(2-fluoro-6-(2H-1,2,3-triazol-2-yl)phenyl)(6-((5-(trifluoromethyl)pyridin-2-yl)oxy)-2-azabicyclo[2.2.1]heptan-2-yl)methanone], the pKi in assay [1] is 7.64; in assay [2] it was 7.60.

On to `O=C(c1ccc(F)cc1-c1ncccn1)N1CC2CC(Oc3ccc(C(F)(F)F)cn3)C1C2` (racemic) [Example 20, (R/S)-(4-fluoro-2-(pyrimidin-2-yl)phenyl)(-6-((5-(trifluoromethyl)pyridin-2-yl)oxy)-2-azabicyclo[2.2.1]heptan-2-yl)methanone], for which the pKi in assay [3] is 5.57.

`O=C(c1ccccc1-n1cnnc1)N1CC2CC(Oc3ccc(C(F)(F)F)cn3)C1C2` (racemic) [Example 21, (R/S)-(2-(4H-1,2,4-triazol-4-yl)phenyl)(6-((5-(trifluoromethyl)pyridin-2-yl)oxy)-2-azabicyclo[2.2.1]heptan-2-yl)methanone]: the pKi in assay [3] and in assay [2] was below 5.00 each time.

`O=C(c1ccc(F)cc1-c1ncccn1)N1C[C@H]2C[C@@H](Oc3ccc(C(F)(F)F)cn3)[C@@H]1C2` [Example 26, (4-fluoro-2-(pyrimidin-2-yl)phenyl)((1S,4R,6R)-6-((5-(trifluoromethyl)pyridin-2-yl)oxy)-2-azabicyclo[2.2.1]heptan-2-yl)methanone]: the pKi in assay [3] is 5.68.

In the case of `COc1c(F)cccc1C(=O)N1C[C@H]2C[C@@H](Oc3ccc(C(F)(F)F)cn3)[C@@H]1C2` [Example 31, (3-fluoro-2-methoxyphenyl)((1S,4R,6R)-6-((5-(trifluoromethyl)pyridin-2-yl)oxy)-2-azabicyclo[2.2.1]heptan-2-yl)methanone], the pKi in assay [3] is below 5.00; in assay [2], 6.15.

Regarding `Cc1cccc(C(=O)N2C[C@H]3C[C@@H](Oc4ccc(C(F)(F)F)cn4)[C@@H]2C3)c1-c1ncco1` [Example 32, (3-methyl-2-(oxazol-2-yl)phenyl)((1S,4R,6R)-6-((5-(trifluoromethyl)pyridin-2-yl)oxy)-2-azabicyclo[2.2.1]heptan-2-yl)methanone], the figures for the pKi in assay [1] and in assay [2] were 8.40 and 8.52, respectively.

`O=C(c1cccc(F)c1-n1nccn1)N1C[C@H]2C[C@@H](Oc3ccc(C(F)(F)F)cn3)[C@@H]1C2` [Example 35, (3-fluoro-2-(2H-1,2,3-triazol-2-yl)phenyl)((1S,4R,6R)-6-((5-(trifluoromethyl)pyridin-2-yl)oxy)-2-azabicyclo[2.2.1]heptan-2-yl)methanone]: in assay [2], the pKi is 8.10.

Turning to `O=C(c1ccccc1-n1nccn1)N1C[C@H]2C[C@@H](Oc3ccc(C(F)(F)F)cn3)[C@@H]1C2` [Example 36, (2-(2H-1,2,3-triazol-2-yl)phenyl)((1S,4R,6R)-6-((5-(trifluoromethyl)pyridin-2-yl)oxy)-2-azabicyclo[2.2.1]heptan-2-yl)methanone], the pKi was 7.96 in assay [1] and 8.30 in assay [2].

With `Cc1cnn(C)c1-c1ccccc1C(=O)N1C[C@H]2C[C@@H](Oc3ccc(C(F)(F)F)cn3)[C@@H]1C2` [Example 41, (2-(1,4-dimethyl-1H-pyrazol-5-yl)phenyl)((1S,4R,6R)-6-((5-(trifluoromethyl)pyridin-2-yl)oxy)-2-azabicyclo[2.2.1]heptan-2-yl)methanone], the pKi in assay [3] is below 5.00; in assay [2] it was 5.36.

Regarding `O=C(c1c(F)cccc1-n1nccn1)N1C[C@H]2C[C@@H](Oc3ccc(C(F)(F)F)cn3)[C@@H]1C2` [Example 46, (2-fluoro-6-(2H-1,2,3-triazol-2-yl)phenyl)((1S,4R,6R)-6-((5-(trifluoromethyl)pyridin-2-yl)oxy)-2-azabicyclo[2.2.1]heptan-2-yl)methanone], the pKi was 7.92 in assay [1] and 8.00 in assay [2].

As to `O=C(c1c(F)cccc1-c1ncccn1)N1C[C@H]2C[C@@H](Oc3ccc(Br)cn3)[C@@H]1C2` [Example 47, ((1S,4R,6R)-6-((5-bromopyridin-2-yl)oxy)-2-azabicyclo[2.2.1]heptan-2-yl)(2-fluoro-6-(pyrimidin-2-yl)phenyl)methanone], the pKi was 7.96 in assay [1] and 8.15 in assay [2].

Regarding `O=C(c1ccccc1-n1nccn1)N1C[C@H]2C[C@@H](Oc3ncccc3C(F)(F)F)[C@@H]1C2` [Example 51, (2-(2H-1,2,3-triazol-2-yl)phenyl)((1S,4R,6R)-6-((3-(trifluoromethyl)pyridin-2-yl)oxy)-2-azabicyclo[2.2.1]heptan-2-yl)methanone], the negative-log Ki (pKi) is 6.17 in assay [3] and 6.53 in assay [2].

In the case of `Cc1ccc(-n2nccn2)c(C(=O)N2C[C@H]3C[C@@H](Oc4ncccc4C(F)(F)F)[C@@H]2C3)n1` [Example 52, (6-methyl-3-(2H-1,2,3-triazol-2-yl)pyridin-2-yl)((1S,4R,6R)-6-((3-(trifluoromethyl)pyridin-2-yl)oxy)-2-azabicyclo[2.2.1]heptan-2-yl)methanone], the pKi is 5.40 in assay [3] and 6.26 in assay [2].

Consider `O=C(c1ccccc1-n1nccn1)N1C[C@H]2C[C@@H](Nc3ccc(C(F)(F)F)cn3)[C@@H]1C2` [Example 53, (2-(2H-1,2,3-triazol-2-yl)phenyl)((1S,4S,6R)-6-((5-(trifluoromethyl)pyridin-2-yl)amino)-2-azabicyclo[2.2.1]heptan-2-yl)methanone], for which the pKi in assay [1] and in assay [2] was 8.52 in each case.
